In BindingDB's records for doi:10.1016/j.bmc.2004.09.056 (Pfizer, 2005):
pIC50: −log10 of the molar value.

Biological target: T1, Renin (Homo sapiens, UniProt P00797)
T1 sequence (P00797 whole entry): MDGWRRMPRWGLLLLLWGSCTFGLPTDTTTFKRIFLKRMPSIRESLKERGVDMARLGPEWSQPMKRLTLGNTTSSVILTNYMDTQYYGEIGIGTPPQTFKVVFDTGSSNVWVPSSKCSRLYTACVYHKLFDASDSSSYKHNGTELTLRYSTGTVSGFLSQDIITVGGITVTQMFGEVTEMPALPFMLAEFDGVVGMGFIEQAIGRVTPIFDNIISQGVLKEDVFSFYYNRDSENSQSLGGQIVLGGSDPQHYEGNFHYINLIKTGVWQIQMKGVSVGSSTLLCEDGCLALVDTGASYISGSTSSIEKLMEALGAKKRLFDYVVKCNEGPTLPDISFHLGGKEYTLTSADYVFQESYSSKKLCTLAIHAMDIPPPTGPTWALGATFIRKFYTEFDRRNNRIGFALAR
Experiment: In Vitro Renin IC50 Determinations (Tandem GFP FRET Assay)
Settings: pH 7.4; 22 °C
Description: The renin assay utilized a tandem Green Flourescent Protein (tGFP) substrate that was hydrolyzed by human rennin. The tGFP substrate contained a nine amino acid (Ile-His-Pro-Phe-His-Leu-Val-Ile-His) recognition sequence for human renin flanked by two GPF proteins (W1B and Topaz). Human rennin cleaves the leucine-valine site of the substrate linker. Once cleaved, the emission ratio changes. The change was monitored by the ratio of 530 nm (topaz) over 475 nm (W1B) with the excitation set at 432 nm and the cutoff at 515 nm. The assay used a 384 well plate format that was read using a Gemini XS Fluorometric plate reader (Molecular Devices). Compounds were screened at a starting concentration of 10 uM and used a fourfold eleven-point dilution regiment.

Structure (SMILES)	pIC50
COc1ccccc1COCCCOc1ccc([C@H]2CCNC[C@H]2NCc2ccc(-c3ccccc3)cc2)cc1 (mixture of isomers) [mixture of cis isomers]	< 5.00
COc1ccccc1COCCCOc1ccc([C@H]2CCNC[C@H]2NC(=O)c2ccc3ccccc3c2)cc1 (mixture of isomers) [mixture of cis isomers]	< 5.00
COc1ccc2cc(CN[C@@H]3CNCC[C@@H]3c3ccc(OCCCOCc4ccccc4OC)cc3)ccc2c1 (mixture of isomers) [(3S,4R)-N-[(6-methoxynaphthalen-2-yl)methyl]-4-(4-{3-[(2-methoxyphenyl)methoxy]propoxy}phenyl)piperidin-3-amine]	7.14
COc1ccccc1COCCCOc1ccc([C@H]2CCNC[C@H]2NCc2ccc3ccccc3c2)cc1 [(3S,4R)-4-(4-{3-[(2-methoxyphenyl)methoxy]propoxy}phenyl)-N-(naphthalen-2-ylmethyl)piperidin-3-amine]	7.21

Next, values leading:

pIC50	Structure (SMILES)
6.76	COc1ccccc1COCCCOc1ccc([C@H]2CCNC[C@H]2NCc2ccc3cccnc3c2)cc1 (mixture of isomers) [mixture of cis isomers]
6.59	COc1ccccc1COCCCOc1ccc([C@H]2CCNC[C@H]2NCc2ccc3c(c2)NCCC3)cc1 [mixture of cis isomers]
5.64	COc1ccccc1COCCCOc1ccc([C@H]2CCNC[C@H]2NCc2ccc3[nH]ccc3c2)cc1 (mixture of isomers) [(3S,4R)-N-(1H-indol-5-ylmethyl)-4-(4-{3-[(2-methoxyphenyl)methoxy]propoxy}phenyl)piperidin-3-amine]
6.41	COc1ccccc1COCCCOc1ccc([C@H]2CCNC[C@H]2NCc2ccc3occc3c2)cc1 (mixture of isomers) [mixture of cis isomers]
